Reference: US20220370486A1, “COMBINATION TREATMENT OF SYSTEMIC FUNGAL INFECTIONS” (The Board of Trustees of the University of Illinois, priority 2019, published 2022)
Read-outs that look alike come from different tables or passages of the source.

Key:
A. flavus ATCC 204304 = experiment: Checkerboard broth microdilution (CLSI); assay type: cell-based; conditions: isolate ATCC 204304
Protocol: (§1) Isolates were tested against varying concentrations of amphotericin B and C2′epiAmB (range, 0.06 to 4 mg/L) and combined with fluconazole (range, 0.12 to 128 mg/L) or ketoconazole (range 0.008 to 8 mg/L) or voriconazole (range, 0.004 to 4 mg/L) using a checkerboard grid design following the Clinical and Laboratory Standards Institute (CLSI) broth microdilution method (M23Ed5).

A. flavus SC 1085986 = experiment: Checkerboard broth microdilution (CLSI); assay type: cell-based; conditions: isolate 1085986
Protocol: as §1

A. fumigatus 1077391 = experiment: Checkerboard broth microdilution (CLSI); assay type: cell-based; conditions: isolate 1077391
Protocol: as §1

[1] = tested on: A. fumigatus ATCC MYA-3626; experiment: Checkerboard broth microdilution (CLSI); assay type: cell-based; conditions: isolate ATCC MYA-3626; for MIC: single agent
Protocol: as §1

C. albicans 967374 = experiment: Checkerboard broth microdilution (CLSI); assay type: cell-based; conditions: isolate 967374
Protocol: as §1

C. krusei 975691 = experiment: Checkerboard broth microdilution (CLSI); assay type: cell-based; conditions: isolate 975691
Protocol: as §1

C. krusei ATCC 6258 = experiment: Checkerboard broth microdilution (CLSI); assay type: cell-based; conditions: isolate ATCC 6258
Protocol: as §1

C. parapsilosis 1048737 = experiment: Checkerboard broth microdilution (CLSI); assay type: cell-based; conditions: isolate 1048737; for MIC: single agent
Protocol: as §1

F. solani SC 1047542 = experiment: Checkerboard broth microdilution (CLSI); assay type: cell-based; conditions: isolate 1047542
Protocol: as §1

[2] = UV-Vis and PCA based sterol sponge binding assay; conditions: apparent KD, sterol sponge aggregates in vitro
Source text: However, an alternative method was developed for reproducible formation of homogenous AmB and C2′epiAmB sterol sponge aggregates in vitro. Using these preparations, a quantitative UV-Vis and Principle Component (PCA) based assay for determining the apparent Kis for the binding of AmB and C2′epiAmB to ergosterol and cholesterol (FIGS. 2A-2D) was developed.

[3] = Isothermal titration calorimetry (ITC) sterol binding
Source text: This key discovery opened a path to the rational development of a non-toxic AmB variant. To probe its predicted role in sterol binding, the hydroxyl group was synthetically deleted at the C2′ position on the mycosamine appendage.
A practical 11-step synthesis of C2′epiAmB using a frontier site-selective acylation method was developed. Wilcock, B. C. et al., Nat Chem 2012, 4 (12), 996-1003; Uno, B. E. A synthesis enabled understanding of Amphotericin B leading to derivatives with improved therapeutic indices. University of Illinois at Urbana-Champaign, 2014. The sterol binding and cell killing activities was then determined.

[4] = tested on: clinically relevant invasive molds; experiment: Activity against broader panel of invasive molds; assay type: cell-based; conditions: many strains, including pan-azole resistant strain F14196
Source text: In vitro antifungal activity of C2′ epiAmB was compared with that of AmB against an extensive series of Candida and Aspergillus clinical isolates (FIG. 6A) at Evotec (Oxfordshire, UK). […] C2′epiAmB was also sent to the US national Fungus Testing Laboratory at UT-San Antonio for antifungal testing against an extended panel of especially challenging 40 Aspergillus clinical isolates, including azole-resistant A. fumigatus, A. flavus, and A. terreus (FIG. 6B).

[5] = Intravenous toxicity in rats; conditions: IV, 2, 10, and 17.5 mg/kg

Structure (SMILES): C[C@@H]1[C@H](O)[C@@H](C)/C=C/C=C/C=C/C=C/C=C/C=C/C=C/[C@H](OC2O[C@H](C)[C@@H](O)[C@H](N)[C@H]2O)CC2O[C@](O)(C[C@@H](O)C[C@@H](O)[C@H](O)CC[C@@H](O)C[C@@H](O)CC(=O)O[C@H]1C)C[C@H](O)[C@H]2C(=O)O (stereo partly drawn) [C2′epiAmB, C2′epi amphotericin B]
- MIC (A. flavus ATCC 204304; Aspergillus flavus, ATCC204304, single agent): 2 µg/mL
- MIC when added 1 log2 unit lower of azoles' MIC (A. flavus ATCC 204304; with ketoconazole): 2 mg/L
- MIC when added 1 log2 unit lower of azoles' MIC (A. flavus ATCC 204304; with voriconazole): 1 mg/L
- MIC (A. flavus SC 1085986; Aspergillus flavus, single agent): 4 µg/mL
- MIC when added 1 log2 unit lower of azoles' MIC (A. flavus SC 1085986; with ketoconazole): >4 mg/L
- MIC when added 1 log2 unit lower of azoles' MIC (A. flavus SC 1085986; with voriconazole): >4 mg/L
- MIC (A. fumigatus 1077391; Aspergillus fumigatus, single agent): 4 µg/mL
- MIC when added 1 log2 unit lower of azoles' MIC (A. fumigatus 1077391; with ketoconazole): 0.06 mg/L
- MIC when added 1 log2 unit lower of azoles' MIC (A. fumigatus 1077391; with voriconazole): >4 mg/L
- MIC ([1]; Aspergillus fumigatus, read-out: MIC): > 4 µg/mL
- MIC [1]: 4 µg/mL
- MIC when added 1 log2 unit lower of azoles' MIC ([1]; with ketoconazole): 0.06 mg/L
- MIC when added 1 log2 unit lower of azoles' MIC ([1]; with voriconazole): >4 mg/L
- MIC (C. albicans 967374; Candida albicans, single agent, read-out: MIC): 2 µg/mL
- MIC when added 1 log2 unit lower of azoles' MIC (C. albicans 967374; with fluconazole): 2 mg/L
- MIC when added 1 log2 unit lower of azoles' MIC (C. albicans 967374; with ketoconazole): 1 mg/L
- MIC when added 1 log2 unit lower of azoles' MIC (C. albicans 967374; with voriconazole): 1 mg/L
- MIC (C. krusei 975691; Pichia kudriavzevii, single agent, read-out: MIC): 2 µg/mL
- MIC when added 1 log2 unit lower of azoles' MIC (C. krusei 975691; with fluconazole): 2 mg/L
- MIC when added 1 log2 unit lower of azoles' MIC (C. krusei 975691; with ketoconazole): 2 mg/L
- MIC when added 1 log2 unit lower of azoles' MIC (C. krusei 975691; with voriconazole): 2 mg/L
- MIC (C. krusei ATCC 6258; Pichia kudriavzevii, ATCC6258, single agent, read-out: MIC): 2 µg/mL
- MIC (C. krusei ATCC 6258; single agent): 1 µg/mL
- MIC when added 1 log2 unit lower of azoles' MIC (C. krusei ATCC 6258; with fluconazole): 2 mg/L
- MIC when added 1 log2 unit lower of azoles' MIC (C. krusei ATCC 6258; with ketoconazole): 1 mg/L
- MIC when added 1 log2 unit lower of azoles' MIC (C. krusei ATCC 6258; with voriconazole): 1 mg/L
- MIC (C. parapsilosis 1048737; Lodderomyces parapsilosis, read-out: MIC): 1 µg/mL
- MIC (C. parapsilosis 1048737): 2 µg/mL
- MIC when added 1 log2 unit lower of azoles' MIC (C. parapsilosis 1048737; with fluconazole): 1 mg/L
- MIC when added 1 log2 unit lower of azoles' MIC (C. parapsilosis 1048737; with ketoconazole): 0.5 mg/L
- MIC when added 1 log2 unit lower of azoles' MIC (C. parapsilosis 1048737; with voriconazole): 0.5 mg/L
- MIC (F. solani SC 1047542; Fusarium solani, single agent): > 4 µg/mL
- MIC when added 1 log2 unit lower of azoles' MIC (F. solani SC 1047542; with ketoconazole): 0.06 mg/L
- MIC when added 1 log2 unit lower of azoles' MIC (F. solani SC 1047542; with voriconazole): >4 mg/L
- Kd ([2]; read-out: KD,chol): > 2000 nM
- Kd ([2]; read-out: KD,erg): 150 nM
- binding of ergosterol by ITC [3]: bind ergosterol
- binding of cholesterol by ITC ([3]; within the detection limits of ITC): not (detectably) cholesterol
- antifungal potency [4]: good antifungal potency
- mortality [5]: no mortality
